Laboratory results as given in PubChem BioAssay AID2060611 (Molecular Pharmacology Branch, DTP, NCI, 2025).

System: 628569-122-R-J1-PDC complex spheroid viability
Assay: Anticancer human tumor 628569-122-R-J1-PDC patient-derived head and neck squamous carcinoma cell line growth inhibition [CLK]
Settings: for IC50: curve of first compound; for viability, T/C: stronger effect = lower value; active means viability on the fitted dose curve at most 10% of control; inactive means the rest
Description: A high-throughput screen of multi-cell type tumor spheroids was designed to identify active combinations of […] and targeted small molecules. Complex spheroids include a stromal component modeled by human endothelial cells (HUVEC) and fibroblasts modeled by human mesenchymal stem cells (MSCs). The concentration ranges selected for each drug and investigational agent were based upon clinically achievable concentrations if the clinical Cmax of the agent was known.
Compounds. The drugs and investigational agents: cirtuvivint (SM08502; NSC835563), CC-671 (NSC850746), vemurafenib (NSC761431), tapotoclax (NSC804041), sotorasib (NSC818433), adagrasib (NSC831453), MRTX-1133 (NSC836407), BAY2416964 (NSC825713), copanlisib (NSC816437), inavolisib (NSC800729), abemaciclib (NSC768073), osimertinib (NSC779217), entinostat (NSC756642), eltanexor (KPT-8602, NSC794443), venetoclax (NSC766270), ceralasertib (NSC777638), bortezomib (NSC756655), olaparib (NSC753686), talazoparib (NSC767125), alisertib (NSC759677), peposertib (NSC802822), gemcitabine (NSC613327), 5-fluorouracil (NSC19893), SN-38 (NSC673596), oxaliplatin (NSC266046), paclitaxel (NSC125973), and doxorubicin (NSC123127), were obtained from the National Cancer Institute (NCI) Developmental Therapeutics Program Chemical Repository. The FDA-approved anticancer drug set is available from the Developmental Therapeutics Program at https://dtp.cancer.gov/organization/dscb/obtaining/available plates.htm. […] The stock solutions were prepared in dimethyl sulfoxide (DMSO, Sigma-Aldrich, St. Louis, MO, cat. D2650), except for the platinum complexes which were prepared in saline (Quality Biological, Gaithersburg, MD, cat. 114-055-101), at 800-fold the tested concentration and stored at -70 degrees C prior to their use. All drugs and investigational agents were tested over a range starting from a high concentration at or near the clinical Cmax and decreasing in half-log increments. If the clinical Cmax for an agent had not been determined, the highest concentration tested was 10 microM.
Cell Culture. All cells were maintained in an incubator at 37 degrees C and 5% CO2 with 95% humidity. The PDC lines were cultured according to standard operating procedures established by the NCI PDMR. Briefly, all PDCs were thawed and cultured in Matrigel-coated flasks prepared with a working solution of 1X Ham's F-12 nutrient mix, without supplementation (Invitrogen, Waltham, MA, cat. 11765054), 100 U/mL penicillin-streptomycin (Invitrogen, cat. 15140122), and 2.5% Matrigel (Corning Inc., Corning, NY, cat. 354248) for the first three passages. The 947758-054-R-J2-PDC line was cultured in 6B/Colon 1A media, which includes advanced DMEM/F-12 (Thermo Fisher Scientific, cat. 12634028), 10 mM HEPES (Thermo Fisher Scientific, cat. 15630080), 1X GlutaMAX supplement (Thermo Fisher Scientific, cat. 35050061), 0.1 mg/mL primocin (InvivoGen, cat. ant-pm-2), 10% defined fetal bovine serum, heat inactivated (HyClone Laboratories Inc., cat. SH30070.03HI), 1.25 mM N-Acetyl-L-cysteine (Sigma-Aldrich, cat. A9165), 10 mM nicotinamide (Sigma-Aldrich, cat. N0636), 1X B-27 supplement (Thermo Fisher Scientific, cat. 17504044), 1X N-2 supplement (Thermo Fisher Scientific, cat. 17502048), and 10 microM Y-27632 dihydrochloride (Tocris Bioscience, cat. 1254). The 876862-298-R-J1-PDC was cultured in 6E media, which includes all 6B/Colon 1A media components plus 50% L-WRN conditioned media (ATCC, cat. CRL-3276), 50 ng/mL recombinant human EGF recombinant protein (hEGF; Thermo Fisher Scientific, cat. PHG0311), 10 ng/mL recombinant human fibroblast growth factor 10 (hGFG-10; PeproTech, cat. 100-26), 1 ng/mL recombinant human fibroblast growth factor 2 (hFGF-2; PeproTech, cat. 100-18B), and 1 µM prostaglandin E2 (PGE2; Tocris, cat. 2296). The 227483-062-R1-J1-PDC line was cultured in Panc media, containing all 6E components except hFGF-2, with the addition of 500 nM SB-431542 (Selleckchem, cat. S1067) and 10 nM gastrin (Tocris, cat. 3006). […]
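Further: spheroids exposed to agents for seven days before readout.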

NC(=O)C(=Cn1cnc(-c2cc(C(F)(F)F)cc(C(F)(F)F)c2)n1)c1cncnc1 + CNC(=O)c1ccc(Nc2nc(OC3CCCC3)c3c(-c4ccc5nc(C)oc5c4)c[nH]c3n2)c(OC)c1
0.681 µM: IC50 (second compound 0.0316 µM)
0.137 µM: IC50 (second compound 0.1 µM)
< 0.00949 µM: IC50 (second compound 0.316 µM) | IC50 (second compound 1 µM) | IC50 (second compound 3.16 µM) | IC50 (second compound 10 µM)
inactive: viability, T/C (second compound 0.0316 µM, first compound 0.00949 µM) 75.8% | viability, T/C (second compound 0.0316 µM, first compound 0.03 µM) 61.6% | viability, T/C (second compound 0.0316 µM, first compound 0.0949 µM) 69.8% | viability, T/C (second compound 0.0316 µM, first compound 0.3 µM) 52% | viability, T/C (second compound 0.0316 µM, first compound 0.949 µM) 50.8% | viability, T/C (second compound 0.0316 µM, first compound 3 µM) 35.6% | viability, T/C (second compound 0.1 µM, first compound 0.00949 µM) 52.4% | viability, T/C (second compound 0.1 µM, first compound 0.03 µM) 53.9% | viability, T/C (second compound 0.1 µM, first compound 0.0949 µM) 50.5% | viability, T/C (second compound 0.1 µM, first compound 0.3 µM) 47.5% | viability, T/C (second compound 0.1 µM, first compound 0.949 µM) 39.5% | viability, T/C (second compound 0.1 µM, first compound 3 µM) 32.4% | viability, T/C (second compound 0.316 µM, first compound 0.00949 µM) 47.1% | viability, T/C (second compound 0.316 µM, first compound 0.03 µM) 51.7% | viability, T/C (second compound 0.316 µM, first compound 0.0949 µM) 44.1% | viability, T/C (second compound 0.316 µM, first compound 0.3 µM) 42.5% | viability, T/C (second compound 0.316 µM, first compound 0.949 µM) 35.9% | viability, T/C (second compound 0.316 µM, first compound 3 µM) 33.8% | viability, T/C (second compound 1 µM, first compound 0.00949 µM) 40.7% | viability, T/C (second compound 1 µM, first compound 0.03 µM) 45.9% | viability, T/C (second compound 1 µM, first compound 0.0949 µM) 31.9% | viability, T/C (second compound 1 µM, first compound 0.3 µM) 29.5% | viability, T/C (second compound 1 µM, first compound 0.949 µM) 26.2% | viability, T/C (second compound 1 µM, first compound 3 µM) 25.7% | viability, T/C (second compound 3.16 µM, first compound 0.00949 µM) 36.9% | viability, T/C (second compound 3.16 µM, first compound 0.03 µM) 41.2% | viability, T/C (second compound 3.16 µM, first compound 0.0949 µM) 28.7% | viability, T/C (second compound 3.16 µM, first compound 0.3 µM) 25.5% | viability, T/C (second compound 3.16 µM, first compound 0.949 µM) 15.9% | viability, T/C (second compound 3.16 µM, first compound 3 µM) 12.3% | viability, T/C (second compound 10 µM, first compound 0.00949 µM) 38.6% | viability, T/C (second compound 10 µM, first compound 0.03 µM) 33.7% | viability, T/C (second compound 10 µM, first compound 0.0949 µM) 30.7% | viability, T/C (second compound 10 µM, first compound 0.3 µM) 21.4% | viability, T/C (second compound 10 µM, first compound 0.949 µM) 17.7% | viability, T/C (second compound 10 µM, first compound 3 µM) 13.7%
